Laboratory results published in US9880171B2, “iASPP phosphorylation and metastatic potential” (LUDWIG INSTITUTE FOR CANCER RESEARCH LTD., priority 2012, dated 2018).
Entries after “also recorded” stand apart in the source; their conditions may differ.

How the values were obtained:
[1] = tested on: WM278, Me300 and SK-MEL37 melanoma cells; test: colony formation assay, Example 10, human melanoma cells; format: cell-based; conditions: agent alone; melanoma cell lines
Excerpt: FIG. 21. Restoring apoptotic function of p53 cooperates with BRAFV600E inhibition to suppress human melanoma cell growth. […] The bar graphs (mean±SD) were derived from three independent experiments. *p<0.05. Lower images show representative Annexin V/7-AAD profile and dishes, respectively. FIG. 21C. Diagrams showing how cyclinB1/cdk1 phosphorylation controls iASPP localization in interphase (interphase) or mitosis or tumor cells (mitosis/melanomas). Blue and red stars (*) indicate the C- and N-terminal contact residues and the phosphorylation status is labeled as (P). The bottom diagram summarizes the pathways that PLX4032, Nutlin3 and JNJ used to suppress melanoma cell growth.

B16 melanoma cells = test: xenograft assay, B16 cells treated in vitro and injected into C57BL/6 mice; format: in vivo; conditions: 13 days after injection of in vitro treated B16 cells
Procedure: At day 1, C57BL/6 mice (7-9 weeks old) were injected s.c. at flanks with 1×10^6 B16 melanoma cells in 100 μl PBS (component treated cells for FIG. 19C, untreated cells for FIGS. 19D and 20D). Component (Nutlin3 (40 mg/kg) or JNJ-7706621 (also referred to herein as “JNJ”, 30 mg/kg)) was dissolved in DMSO and i.p. administered every two days since day 3, or day 7 (no component administration for FIG. 19C). Tumor size was measured every two days with vernier caliper. Tumor volumes were calculated using the following formula: (L*W*W)/2, in which L represents the larger diameter of the tumor, and W represents the smaller diameter. On day 13 (tumor area reach ˜1.2 cm diameter in DMSO group), all mice were sacrificed and tumors were isolated and weighed.
Mouse B16 melanoma cells are known to form highly aggressive melanoma in vivo in immune competent C57BL/6 syngeneic mice. Because regulation of p53 by iASPP and mdm2 exists in both human WM278 cells and mouse B16 cells, experiments were carried out to determine if restoring p53 function in B16 cells is able to suppress tumor growth in C57BL/6 mice in vivo. B16 cells, treated with (1) DMSO, (2) Nutlin3, (3) JNJ, or (4) Nutlin3+JNJ, were injected into the flank of 7-9 week-old female C57BL/6 mice.

B16 melanoma = test: xenograft assay, untreated B16 cells, compounds given i.p.; format: in vivo, C57BL/6 mice; parameters: concentration or dose not given beside the values
Procedure: (§1) FIG. 20. Restoring p53 by inhibiting mdm2 and iASPP suppresses melanoma growth in vitro and in vivo. FIG. 20A. H1299 cells were treated with DMSO or 10 μM nocodazole in the presence or absence of 2 or 10 μM of mitosis-related kinase inhibitors as indicated. […] FIG. 20B. Left panel: representative p53 level after Nutlin3 treatment for 24 hours in a variety of cells. Right bar graphs show the sub-G1 proportion of WM278 after treatment as that described in FIG. 19B (in upper panel, 10 μM and 20 μM Nutlin3 were used in parallel for comparison). From left to right of the upper right bar graph of FIG. 20B, the bars correspond to DMSO, Nut and JNJ+Nut, respectively. From left to right of the bottom bar graph of FIG. 20B, the bars correspond to DMSO, JNJ, Nut and JNJ+Nut, respectively. FIG. 20C. Me300, SK-MEL37, and B16 cells were treated as above (For B16 panel, 10 μM Nutlin3 was used) and sub-G1 proportion was analyzed. In (B) and (C), the bar graphs (mean±SD) were derived from three independent experiments. *p<0.05. FIG. 20D. Left panel: untreated B16 cells were subcutaneously injected into mice at day 1. […] Compound administration and tumor size measurement were repeated every two days from day 7 onwards. Bar graphs are shown as mean±SD (*p<0.05, n=6). FIG. 20E. Lower panels show representative images of isolated tumors. Right panel: representative H & E staining in B16 tumor section. Bar=20 μm.
At day 1, C57BL/6 mice (7-9 weeks old) were injected s.c. at flanks with 1×10^6 B16 melanoma cells in 100 μl PBS (component treated cells for FIG. 19C, untreated cells for FIGS. 19D and 20D).

[2] = tested on: iASPP modification and p53-iASPP binding in WM278 cells; test: iASPP modification and p53 co-immunoprecipitation in WM278 cells; format: cell-based, human
Procedure: For WB, cells were lysed in buffer containing 8 M urea, 1 M thiourea, 0.5% CHAPS, 50 mM DTT, and 24 mM spermine. A total of 40 μg of protein extract was loaded per lane into SDS-polyacrylamide gels. Gels were transferred onto nitrocellulose membrane (Protran) and the resulting blots incubated first with primary antibody overnight at 4° C. and then with the appropriate secondary horseradish peroxidize-conjugated antibody (Dako). The results were visualized by enhanced chemiluminescent detection (Amersham Biosciences) using X-ray film (Fujifilm). For cell lysate immunoprecipitation, cells were dissolved in NP40 buffer (50 mM Tris-HCl pH 8.0, 150 mM NaCl, 1% NP-40) with protease inhibitor cocktail mix (Roche Diagnostics). Cells were further thoroughly broken by ultrasonication, followed by spinning for 1 hour. Achieved suspension was adjusted to 1-2 mg/ml using NP40 buffer and incubated with 20 μl nickel beads, glutathione beads, or protein A beads (with 2 μg required antibody) for 2 h at room temperature. The beads were washed for four times with NP40 buffer, boiled for 5 min in Laemmli sample buffer, and applied for Western blotting. For pure protein immunoprecipitation, 5-10 μg purified proteins were mixed in NP40 buffer with 1 mg/ml BSA for 2 h at room temperature.

[3] = tested on: nuclear iASPP and p53 in B16 tumors; test: immunofluorescence staining of iASPP and p53 in B16 tumor sections; format: in vivo, C57BL/6 mice; conditions: tumor sections from i.p. treated mice
[4] = tested on: WM278, Me300 and SK-MEL37 melanoma cells; test: apoptosis by Annexin V / Sub-G1 FACS analysis, Example 10, human melanoma cells; format: cell-based; conditions: for apoptosis: agent alone, JNJ 0.4 μM, Nutlin3 10-20 μM, 72 hours, melanoma cell lines
Procedure: as §1
FIG. 21. Restoring apoptotic function of p53 cooperates with BRAFV600E inhibition to suppress human melanoma cell growth.

[5] = tested on: p53 expression in B16 cells; test: p53 level after Nutlin3 treatment, B16 cells; format: cell-based, mouse
Procedure: as §1, with “μm. […]” for “μm.”

[6] = i.p. administration from day 3 after B16 inoculation
[7] = i.p. administration from day 7 after B16 inoculation

| Structure (SMILES) | suppression of cell growth [1] | tumor size and weight, of control (DMSO-treated B16 cell group) (B16 melanoma cells) | suppression of B16 melanoma growth (B16 melanoma; [6]) | suppression of B16 melanoma growth (B16 melanoma; [7]) | amount of modified iASPP ([2]; 0.4 μM JNJ or 10 μM nocodazole overnight) | binding of iASPP to p53 (co-immunoprecipitation) ([2]; 0.4 μM JNJ, listed as JNJ) | iASPP expression in B16 tumors [3] | p53 expression in B16 tumors [3] | increase in Nutlin3-induced apoptosis ([4]; Me300 and WM278 cells, Annexin V or Sub-G1) | apoptosis [4] | optimal concentration of Nutlin3 to induce maximal p53 expression [5] |
| --- | --- | --- | --- | --- | --- | --- | --- | --- | --- | --- | --- |
| Nc1nc(Nc2ccc(S(N)(=O)=O)cc2)nn1C(=O)c1c(F)cccc1F [JNJ-7706621] | limited | around 40% | 36% | 30% | reduced the amount of modified iASPP | failed to co-immunoprecipitate iASPP; also recorded: able to prevent iASPP from binding to p53 | clearly reduced nuclear iASPP expression | no effect on p53 expression | 3-4 fold | only a small percentage of cells |  |
| COc1ccc(C2=N[C@@H](c3ccc(Cl)cc3)[C@@H](c3ccc(Cl)cc3)N2C(=O)N2CCNC(=O)C2)c(OC(C)C)c1 [Nutlin3] | limited | ~60% | 22% | 5% |  |  | minimal impact on iASPP expression | induced nuclear p53 expression |  | only a small percentage of cells | 10 µM |
